| SMILES | melting point |
| --- | --- |
| CCCCCCCSc1nnc(N)s1 | 112 to 113 °C |
| c1cncc(-c2ccc3c(c2)OCO3)c1 | 92 to 92.5 °C |
| CCCn1nnn(-c2cc(OS(C)(=O)=O)c(Cl)cc2Cl)c1=O | 64 to 65 °C |
| O=C(Nc1ccc2cc(CN3CCCC3)cnc2c1F)c1ccc(-c2ccccc2)cc1F | 136 to 137 °C |
| O=C(Nc1c(C(O)(C(F)(F)F)C(F)(F)F)ccc2ccccc12)c1cc(Cl)cc(Cl)c1 | 205 to 207 °C |
| CN(CCO)Cc1cc(C(=O)c2ccccc2)cc(C(C)(C)C)c1O | 118 to 119 °C |
| N#Cc1ccc(-c2nc(=O)c3ccccc3s2)cc1 | 241 °C |
| CN(C)C=CC(=O)c1ccc(Cl)c(S(=O)(=O)N=CN(C)C)c1 | 204 to 206 °C |
| COc1cc(C)nc(-c2cccc(-c3ccccc3C)n2)n1 | 103 °C |
| CC(C)(Oc1ccc(NC(=O)Oc2ccc(Cl)cc2)cc1)C(=O)O | 179 to 182 °C |
| CC(=O)OC1CC2(C)C(C(C)=O)=CCC2C2CCC3=CC(=O)C=CC3(C)C12F (stereo unspecified) | 202 to 203 °C |
| CCCCCCCCCCCCCCCCOc1ccc(-c2nc(CC(=O)OCC)c(OCC)o2)cc1 | 44 to 45 °C |
| COc1cccc(C(N)=O)c1[N+](=O)[O-] | 212 to 214 °C |
| CCOC(=O)c1ccc(/C=C(\C)c2ccc3c(c2)C(C)(C)CCO3)cc1 | 86 to 87 °C |
| CCc1cc(C)cc(CC)c1C1C(=O)N2CCOCCN2C1=O | 193 to 194 °C |
| NC(=O)c1cc(CN2C(=O)C3(COc4cc5c(cc43)OCO5)c3ccccc32)oc1C(F)(F)F (stereo unspecified) | 172 to 174 °C |
| O=c1n(-c2ccc(Cl)cc2)c(=O)n(SC(Cl)(Cl)Cl)n1SC(Cl)(Cl)Cl | 169 °C |
| CN(CCc1ccc(NC(N)=S)cc1)Cc1ccccc1 | 119 to 122 °C |
| CC(C)Oc1cc(-n2c(=O)c(F)c(C(F)(F)F)n(C)c2=O)c(F)cc1Cl | 104 to 107 °C |
| CCCCc1nc2c(C#N)ncc(C)c2[nH]1 | 197 to 198 °C |
| CCCCCN(C(=O)Cl)c1ccc2c(c1)C(C)(C)CCC2(C)C | 79 to 81 °C |

| SMILES | melting point |
| --- | --- |
| CN1C(=O)CC[C@]2(C)c3ccc(Sc4nc(-c5ccccc5)nc5ccccc45)cc3CC[C@@H]12 | 185 to 193 °C |
| C#CCn1nnc2cc3c(cc2c1=O)OC1CCCN1C3=O (stereo unspecified) | 186 to 188 °C |
| CCOP(=O)(CC(=O)N(CC)c1cn(-c2cccnc2)nc1Cl)OCC | 46 to 48 °C |
| CC(C)(C)OC(=O)OCC(COC(=O)OC(C)(C)C)OCn1cnc2c(=O)[nH]c(N)nc21 | 192 to 193 °C |
| CCCCCC(C)C(C)c1cc(O)c2c(c1)OC(C)(C)C1=C2CN(CC(=O)NC(N)=O)CC1 (stereo unspecified) | 131 to 133 °C |
| Nc1nc2c(s1)CCN(CC=Cc1cccc([N+](=O)[O-])c1)CC2 | 165 to 168 °C |
| CCOC(=O)c1ncc2[nH]c3ccc([N+](=O)[O-])cc3c2c1C | 272 to 275 °C |
| Cc1oc(-c2ccc(Cl)cc2)nc1CC(=O)O | 160 to 161 °C |
| CC(C)(O)c1ccc(-c2cnc3[nH]c(=O)n(CC4CCCCC4)c3n2)cn1 | > 250 °C |
| Cc1cc(O)c(S(=O)Cc2ccc(Cl)cc2)c(=O)o1 (stereo unspecified) | 150 to 151 °C |
| Cc1coc(Cc2ccc([N+](=O)[O-])cc2)n1 | 67 to 68 °C |
| CCCCC(O)CN1CCC2(CC1)CSC1=C(O2)c2ccccc2C(=O)C1=O (stereo unspecified) | 160 to 163 °C |
| OC1(C(F)(F)F)ON=C(c2ccc(Cl)cc2)C1Cl (stereo unspecified) | 126 to 127 °C |
| CC(C)(C)NCC(O)c1ccc(N)c(C(F)(F)F)c1 (stereo unspecified) | 145 to 147 °C |
| CCCCCCCCCCCCCCCCCCSc1ccc(O)cc1 | 95 °C |
| COc1ccc(C2CN(C)C(=O)O2)cc1OC (stereo unspecified) | 132 to 133 °C |
| CC(C)(C)OC(=O)NCC(=O)N1CCC(=C2c3ccc(Cl)cc3CCc3cccnc32)CC1 | 209 to 211 °C |
| C[Si](C)(C)OC(Cn1ccnc1)(Cn1cncn1)c1ccc(F)cc1F (stereo unspecified) | 87 to 89 °C |
| CCCCCCCCCCCCCCCCCCOCC(CO)OC(=O)N1CCOCC1 (stereo unspecified) | 48 to 49 °C |
| Clc1ccc(-c2cc(C3CCN(Cc4ccccc4)CC3)no2)cc1 | 112 to 114 °C |
